# Results: patent US4714702A, “Quinazolinone derivative” (Tanabe Seiyaku Co., Ltd., priority 1983, dated 1987)
# Legend:
# Type in all cases: in vivo, male mice (ddY-strain)
# mice [1] = experiment: Acute toxicity (oral, 72 hours); conditions: for Safety margin (LD50 /ED50): potency ratio of the acute toxicity to the muscle relaxing activity, oral, mice
# Method: (§1) A test compound dissolved or suspended in an aqueous 0.5% carboxymethylcellulose sodium salt solution was administered orally to a group of six male mice (ddY-strain, body weight: 18-20 g). The 50% lethal dose (LD50) of the test compound was calculated according to the probit method from the number of mice which died within a period of 72 hours after administration.
# mice [2] = experiment: Muscle relaxing activity (the rotating rod method)
# Method: A test compound dissolved or suspended in an aqueous 0.5% carboxymethylcellulose sodium salt solution was administered orally to a group of three male mice (ddY-strain, body weight: 18-20 g). After administration of the test compound, the mice were placed on a rotating rod (3.5 cm in diameter, 7.5 r.p.m.) at intervals, and the number of mice which fell out of the rod at least twice within one minute was counted. The 50% effective dose (ED50) of the test compound was calculated therefrom according to the probit method.
# [3] = Acute toxicity (oral, 72 hours); conditions: mouse, in vivo; oral, mice, deaths within 72 hours, probit method
# Method: as §1
structure (smiles),measurement,setting,value
"Cc1ccccc1OCC(O)CO (stereo not drawn) [Mephenesin, 3-(o-tolyloxy)-1,2-propanediol, reference compound]",Safety margin (LD50 /ED50),mice [1],4.06
"Cc1cc(Cl)ccc1-n1c(CF)nc2ccc(N)cc2c1=O [Test compound 1, 2-fluoromethyl-3-(2-methyl-4-chlorophenyl)-6-amino-4(3H)-quinazolinone]",ED50,"mice [2]; Mus musculus, oral, mice, rotating rod, probit method",13.6 mg/kg
same,"muscle relaxing activity, times stronger than that of Mephenesin","mice [2]; rotating rod method (mice), relative to Mephenesin",about 36.6 times
same,LD50 at 72 h,[3],702 mg/kg
same,"safety margin, times as high as that of Mephenesin","mice [1]; acute toxicity to muscle relaxing activity ratio, relative to Mephenesin",about 12.7 times
same,Safety margin (LD50 /ED50),mice [1],51.6
